Calls of active or inactive are those of the source. No cut-off for these calls is given here.
Legend:
DV-90 [1] = assay: Induction of cell cycle arrest in human DV-90 cells assessed as accumulation of cells at G0/G1 phase at 0.1 uM for 24 hrs by Click-iT EdU Alexa Fluor 647 flow cytometric assay kit analysis (reference value: 47%); type: functional
NCI-H460 [2] = assay: Induction of apoptosis in human NCI-H460 cells assessed as viable cells at 2.5 uM for 24 hrs by annexin V-PI staining based flow cytometric analysis (reference value: 92.8%); type: functional; settings: read-out: Activity
DV-90 [3] = assay: Induction of cell cycle arrest in human DV-90 cells assessed as accumulation of cells at G0/G1 phase at 0.1 uM for 24 hrs by Click-iT EdU Alexa Fluor 647 flow cytometric assay kit analysis (reference value: 45%); type: functional
DV-90 [4] = assay: Induction of cell cycle arrest in human DV-90 cells assessed as accumulation of cells at S phase at 0.25 uM for 24 hrs by Click-iT EdU Alexa Fluor 647 flow cytometric assay kit analysis (reference value: 30%); type: functional
NCI-H1373 [5] = assay: Induction of cell cycle arrest in human NCI-H1373 cells assessed as accumulation of cells at G0/G1 phase at 1 uM for 24 hrs by Click-iT EdU Alexa Fluor 647 flow cytometric assay kit analysis (reference value: 45%); type: functional
NCI-H460 [6] = assay: Induction of cell cycle arrest in human NCI-H460 cells assessed as accumulation of cells at S phase at 0.1 uM for 24 hrs by Click-iT EdU Alexa Fluor 647 flow cytometric assay kit analysis (reference value: 54%); type: functional
NCI-H460 [7] = assay: Induction of cell cycle arrest in human NCI-H460 cells assessed as accumulation of cells at S phase at 0.25 uM for 24 hrs by Click-iT EdU Alexa Fluor 647 flow cytometric assay kit analysis (reference value: 54%); type: functional
A549 [8] = assay: Induction of cell cycle arrest in human A549 cells assessed as accumulation of cells at S phase at 0.5 uM for 24 hrs by Click-iT EdU Alexa Fluor 647 flow cytometric assay kit analysis (reference value: 35%); type: functional
A549 [9] = assay: Induction of cell cycle arrest in human A549 cells assessed as accumulation of cells at G2/M phase at 0.1 uM for 24 hrs by Click-iT EdU Alexa Fluor 647 flow cytometric assay kit analysis (reference value: 3%); type: functional
DV-90 [10] = assay: Induction of cell cycle arrest in human DV-90 cells assessed as accumulation of cells at G0/G1 phase at 0.5 uM for 24 hrs by Click-iT EdU Alexa Fluor 647 flow cytometric assay kit analysis (reference value: 44%); type: functional
NCI-H1373 [11] = assay: Induction of cell cycle arrest in human NCI-H1373 cells assessed as accumulation of cells at G0/G1 phase at 1 uM for 24 hrs by Click-iT EdU Alexa Fluor 647 flow cytometric assay kit analysis (reference value: 40%); type: functional
NCI-H1373 [12] = assay: Induction of cell cycle arrest in human NCI-H1373 cells assessed as accumulation of cells at G2/M phase at 0.25 uM for 24 hrs by Click-iT EdU Alexa Fluor 647 flow cytometric assay kit analysis (reference value: 13%); type: functional
DV-90 [13] = assay: Induction of apoptosis in human DV-90 cells assessed as viable cells at 0.5 uM for 24 hrs by annexin V-PI staining based flow cytometric analysis (reference value: 81.5%); type: functional; settings: read-out: Activity
NCI-H1373 [14] = assay: Induction of apoptosis in human NCI-H1373 cells assessed as necrotic cells at 0.5 uM for 24 hrs by annexin V-PI staining based flow cytometric analysis (reference value: 5.5%); type: functional
NCI-H460 [15] = assay: Induction of apoptosis in human NCI-H460 cells assessed as viable cells at 0.5 uM for 24 hrs by annexin V-PI staining based flow cytometric analysis (reference value: 94%); type: functional; settings: read-out: Activity
NCI-H2030 [16] = assay: Downregulation of c-MYC protein level in human NCI-H2030 cells at 100 to 5000 nM upto 24 hrs by Western blot analysis; type: functional, cell-based; settings: dose 100-5000 nM
A549 [17] = assay: Downregulation of c-MYC mRNA expression level in human A549 cells at 0.1 to 1 uM for 24 hrs by qRT-PCR analysis; type: functional, cell-based; settings: dose 0.1-1 µM
NCI-H2347 = assay: Downregulation of c-MYC mRNA expression level in human NCI-H2347 cells at 0.1 to 1 uM for 24 hrs by qRT-PCR analysis; type: functional, cell-based; settings: dose 0.1-1 µM
NCI-H1373 [18] = assay: Antitumor activity against human NCI-H1373 cells xenografted in SCID mouse assessed as tumor weight ratio to control at 50 mg/kg, ip measured on after 15 days relative to control; type: functional; settings: time 15 day
[19] = Toxicity in SCID mouse xenografted with human NCI-H1373 cells assessed as body weight loss at 50 mg/kg, ip measured on after 15 days relative to control; type: organism-based; settings: in vivo, 360 h, time 15 day
A549 [20] = assay: Downregulation of FLIP mRNA expression level in human A549 cells at 0.1 to 1 uM for 24 hrs by qRT-PCR analysis; type: functional, cell-based; settings: dose 0.1-1 µM
NCI-H2030 [21] = assay: Downregulation of FLIP mRNA expression level in human NCI-H2030 cells at 0.1 to 1 uM for 24 hrs by qRT-PCR analysis; type: functional, cell-based; settings: dose 0.1-1 µM
LCLC-97TM1 [22] = assay: Downregulation of XIAP protein expression level in human LCLC-97TM1 cells at 1 uM for 24 hrs by […] analysis; type: functional, cell-based
NCI-H23 = assay: Downregulation of XIAP protein expression level in human NCI-H23 cells at 1 uM for 24 hrs by […] analysis; type: functional, cell-based
NCI-H2030 [23] = assay: Downregulation of XIAP protein expression level in human NCI-H2030 cells at 1 uM for 24 hrs by […] analysis; type: functional, cell-based
LCLC-97TM1 [24] = assay: Downregulation of c-MYC protein expression level in human LCLC-97TM1 cells at 1 uM for 24 hrs by […] analysis; type: functional, cell-based
NCI-H1792 = assay: Downregulation of c-MYC protein expression level in human NCI-H1792 cells at 1 uM for 24 hrs by […] analysis; type: functional, cell-based
A549 [25] = assay: Downregulation of c-MYC protein expression level in human A549 cells at 1 uM for 24 hrs by […] analysis; type: functional, cell-based
NCI-H2030 [26] = assay: Downregulation of c-MYC protein expression level in human NCI-H2030 cells at 1 uM for 24 hrs by […] analysis; type: functional, cell-based
NCI-H2030 [27] = assay: Induction of TRAIL dependent apoptosis in human NCI-H2030 cells by annexin V-PI staining based flow cytometric analysis; type: functional, cell-based
NCI-H1373 [28] = assay: Induction of TRAIL dependent apoptosis in human NCI-H1373 cells assessed as viable cells at 1 uM in presence of […] by annexin V-PI staining based flow cytometric analysis (reference value: 87.6%); type: functional; settings: read-out: Activity
NCI-H460 [29] = assay: Antiproliferative activity against human NCI-H460 cells at 500 to 2500 nM in presence of TNF by cell titre glo assay; type: functional, cell-based; settings: dose 500-2500 nM
A549 [30] = assay: Induction of apoptosis in human A549 cells assessed as early apoptotic cells at 1 uM by annexin V-PI based flow cytometric analysis (reference value: 0.2%); type: functional

Cc1sc2c(c1C)C(c1ccc(Cl)cc1)=N[C@@H](CC(=O)Nc1ccc(O)cc1)c1nnc(C)n1-2 [BIRABRESIB]
Activity (DV-90 [1]): 50% | viability at 2.5 µM (NCI-H460 [2]): 90.4%

CCNC(=O)C[C@@H]1N=C(c2ccc(Cl)cc2)c2cc(OC)ccc2-n2c(C)nnc21 [MOLIBRESIB]
Activity (DV-90 [3]): 46% | Activity (DV-90 [4]): 22% | Activity (NCI-H1373 [5]): 50% | Activity (NCI-H460 [6]): 53% | Activity (NCI-H460 [7]): 56%

Cc1sc2c(c1C)C(c1ccc(Cl)cc1)=N[C@@H](CC(=O)OC(C)(C)C)c1nnc(C)n1-2
Activity (A549 [8]): 33% | Activity (A549 [9]): 2% | Activity (DV-90 [10]): 51% | Activity (NCI-H1373 [11]): 68% | Activity (NCI-H1373 [12]): 16% | viability at 0.5 µM (DV-90 [13]): 61.3% | Activity (NCI-H1373 [14]): 13% | viability at 0.5 µM (NCI-H460 [15]): 91.2% | Activity (NCI-H2030 [16]): inactive | Activity (A549 [17]): Active | Activity (NCI-H2347): Active | T/C (NCI-H1373 [18]): 32% | Activity [19]: 5% | Activity (A549 [20]): Active | Activity (NCI-H2030 [21]): Active | Activity (LCLC-97TM1 [22]): Active | Activity (NCI-H23): Active | Activity (NCI-H2030 [23]): Active | Activity (LCLC-97TM1 [24]): Active | Activity (NCI-H1792): Active | Activity (A549 [25]): Active | Activity (NCI-H2030 [26]): Active | Activity (NCI-H2030 [27]): Active | viability at 1 µM (NCI-H1373 [28]): 17.8% | Activity (NCI-H460 [29]): Active | Activity (A549 [30]): 0.1%

Reference: ChEMBL document CHEMBL5712891, “Inhibition of BET bromodomain-dependent XIAP and FLIP expression sensitizes KRAS-mutated NSCLC to pro-apoptotic agents” (Cell Death Dis, 2016)
